Measurements published in US4966900A, “Cephalosporin β-lactam compound and medicinal composition” (priority 1986, dated 1990).
≈ marks a conversion by molar mass, not a printed value.

Key:
Experiment in all cases: MIC
P. vulgaris GN7919 = settings: Proteus vulgaris, GN7919
E. cloacae 5D63-2 = settings: Enterobacter cloacae, 5D632
C. freundii 1U589 = settings: Citrobacter freundii, 1U589
E. cloacae 908RN = settings: Enterobacter cloacae, E. colacae 908RN, Table 7
S. aureus Smith = settings: Staphylococcus aureus, Table 7
P. aeruginosa 4au542 = settings: Pseudomonas aeruginosa, 4AU542, P. aeruginosa 4au542; Table 7
P. cepacia OF189 = settings: Burkholderia cepacia, OF189, P. cepacia OF189; Table 7
C. freundii GN7391 = settings: Citrobacter freundii, GN7391, C. freundii GN7391; Table 7
E. cloacae 1V247 = format: cell-based; settings: Enterobacter cloacae, Table 8
Procedure: (§1) The minimum inhibition concentrations (MIC) of the compounds obtained in the respective examples described above were measured according to the standard method of Japanese Chemotherapy Association.

S. aureus IAA498 = format: cell-based; settings: Staphylococcus aureus, Table 7
Procedure: as §1

S. marcescens GN10857 = settings: Serratia marcescens, GN10857, S. marcescens GN10857; Table 7
E. cloacae 5D52-2 = settings: Enterobacter cloacae, 5D522
E. colacae GN7471 = settings: Table 7
C. freundii 1R523 = settings: Citrobacter freundii, 1R523
E. cloacae 1V25 = settings: Enterobacter cloacae
C. freundii 1R526 = settings: Citrobacter freundii, 1R526
P. maltophilia OF247 = settings: Stenotrophomonas maltophilia, Table 7
P. aeruginosa GN10362 = settings: Pseudomonas aeruginosa, GN10362
E. coli ML4707 = settings: Escherichia coli, ML4707, E. coli ML4707; Table 7
K. pneumoniae 4at521 = settings: Klebsiella pneumoniae, 4AT521
E. coli GN5482 = settings: Escherichia coli, GN5482, E. coli GN5482; Table 7
C. freundii 1U692 = settings: Citrobacter freundii, 1U692
C. freundii 5D60-1 = settings: Citrobacter freundii, 5D601
P. aeruginosa 5D58-1 = settings: Pseudomonas aeruginosa, 5D581, P. aeruginosa 5D58-1; Table 7
C. freundii 1R524 = settings: Citrobacter freundii, 1R524
C. freundii 1R527 = settings: Citrobacter freundii, 1R527

Structure (SMILES)	MIC (P. vulgaris GN7919) [µg/mL]	MIC (E. cloacae 5D63-2) [µg/mL]	MIC (C. freundii 1U589) [µg/mL]	MIC (E. cloacae 908RN) [µg/mL]	MIC (S. aureus Smith) [µg/mL]	MIC (P. aeruginosa 4au542) [µg/mL]	MIC (P. cepacia OF189) [µg/mL]	MIC (C. freundii GN7391) [µg/mL]	MIC (E. cloacae 1V247) [µg/mL]	MIC (S. aureus IAA498) [µg/mL]	MIC (S. marcescens GN10857) [µg/mL]	MIC (E. cloacae 5D52-2) [µg/mL]	MIC (E. colacae GN7471) [µg/mL]	MIC (C. freundii 1R523) [µg/mL]	MIC (E. cloacae 1V25) [µg/mL]	MIC (C. freundii 1R526) [µg/mL]	MIC (P. maltophilia OF247) [µg/mL]	MIC (P. aeruginosa GN10362) [µg/mL]	MIC (E. coli ML4707) [µg/mL]	MIC (K. pneumoniae 4at521) [µg/mL]	further results
CC(=O)Oc1ccc(C(=O)NNC(=O)C(C)(C)ON=C(C(=O)NC2C(=O)N3C(C(=O)O)=C(CSc4ccnc5nc(C(=O)O)nn45)CS[C@H]23)c2csc(N)n2)cc1OC(C)=O (stereo partly shown) [Example 46, 7-{2-[2-Amino-1,3-thiazol-4-yl]-2-[1-(3-(3,4-diacetoxybenzoyl)carbazoyl)-1-methylethoxyimino]acetamido}-3-[(2-carboxy-s-triazolo[1,5-a]pyrimidin-7-yl)thiomethyl]-3-cephem-4-carboxylic acid]	12.5 (≈ 13.9 µM)	5.25 (≈ 5.85 µM)	6.25 (≈ 6.96 µM)	12.5 (≈ 13.9 µM)	12.5 (≈ 13.9 µM)	0.39 (≈ 0.434 µM)	< 0.006	100 (≈ 111 µM)	25 (≈ 27.8 µM)	25 (≈ 27.8 µM)	0.78 (≈ 0.869 µM)	0.39 (≈ 0.434 µM)	0.78 (≈ 0.869 µM)	3.13 (≈ 3.49 µM)	25 (≈ 27.8 µM)	3.13 (≈ 3.49 µM)	0.78 (≈ 0.869 µM)	0.2 (≈ 0.223 µM)	0.05 (≈ 0.0557 µM)	0.025 (≈ 0.0278 µM)	MIC (E. coli GN5482): 0.05 µg/mL (≈ 0.0557 µM); MIC (C. freundii 1U692): 6.25 µg/mL (≈ 6.96 µM); MIC (C. freundii 5D60-1): 12.5 µg/mL (≈ 13.9 µM); MIC (P. aeruginosa 5D58-1): 0.2 µg/mL (≈ 0.223 µM); MIC (C. freundii 1R524): 3.13 µg/mL (≈ 3.49 µM); MIC (C. freundii 1R527): 3.13 µg/mL (≈ 3.49 µM)
CC(C)(ON=C(C(=O)NC1C(=O)N2C(C(=O)O)=C(CSc3ccnc4nc(C(=O)O)nn34)CS[C@H]12)c1csc(N)n1)C(=O)NNC(=O)c1ccc(O)c(O)c1 (stereo partly shown) [Example 56, 7-{2-[2-Amino-1,3-thiazol-4-yl]-2-[1-(3-(3,4-dihydroxybenzoyl)carbazoyl)-1-methylethoxyimino]acetamido}-3-[(2-carboxy-s-triazolo[1,5-a]pyrimidin-7-yl)thiomethyl]-3-cephem-4-carboxylic acid]	1.56 (≈ 1.92 µM)	1.56 (≈ 1.92 µM)	6.25 (≈ 7.68 µM)	1.56 (≈ 1.92 µM)	6.25 (≈ 7.68 µM)	0.2 (≈ 0.246 µM)	< 0.006	25 (≈ 30.7 µM)	12.5 (≈ 15.4 µM)	12.5 (≈ 15.4 µM)	0.39 (≈ 0.479 µM)	0.1 (≈ 0.123 µM)	0.39 (≈ 0.479 µM)	1.56 (≈ 1.92 µM)	12.5 (≈ 15.4 µM)	3.13 (≈ 3.85 µM)	0.39 (≈ 0.479 µM)	0.1 (≈ 0.123 µM)	0.025 (≈ 0.0307 µM)	0.025 (≈ 0.0307 µM)	MIC (E. coli GN5482): 0.025 µg/mL (≈ 0.0307 µM); MIC (C. freundii 1U692): 6.25 µg/mL (≈ 7.68 µM); MIC (C. freundii 5D60-1): 6.25 µg/mL (≈ 7.68 µM); MIC (P. aeruginosa 5D58-1): 0.05 µg/mL (≈ 0.0614 µM); MIC (C. freundii 1R524): 1.56 µg/mL (≈ 1.92 µM); MIC (C. freundii 1R527): 1.56 µg/mL (≈ 1.92 µM)
CC(=O)Oc1ccc(C(=O)NNC(=O)C(C)(C)ON=C(C(=O)NC2C(=O)N3C(C(=O)O)=C(CSc4c(C)c(C)nc5c(C(=O)O)cnn45)CS[C@H]23)c2csc(N)n2)cc1OC(C)=O (stereo partly shown) [Example 47, 7-{2-[2-Amino-1,3-thiazol-4-yl]-2-[1-(3-(3,4-diacetoxybenzoyl)carbazoyl)-1-methylethoxyimino]acetamido}-3-[(3-carboxy-5,6-dimethylpyrazolo[1,5-a]pyrimidin-7-yl)thiomethyl]-3-cephem-4-carboxylic acid]	6.26 (≈ 6.77 µM)	0.39 (≈ 0.422 µM)	1.56 (≈ 1.69 µM)	0.78 (≈ 0.843 µM)	25 (≈ 27 µM)	0.78 (≈ 0.843 µM)	< 0.006	1.56 (≈ 1.69 µM)	3.13 (≈ 3.38 µM)	50 (≈ 54.1 µM)	0.39 (≈ 0.422 µM)	0.2 (≈ 0.216 µM)	0.39 (≈ 0.422 µM)	0.39 (≈ 0.422 µM)	3.13 (≈ 3.38 µM)	0.39 (≈ 0.422 µM)	0.78 (≈ 0.843 µM)	0.39 (≈ 0.422 µM)	0.025 (≈ 0.027 µM)	0.025 (≈ 0.027 µM)	MIC (E. coli GN5482): 0.025 µg/mL (≈ 0.027 µM); MIC (C. freundii 1U692): 0.39 µg/mL (≈ 0.422 µM); MIC (C. freundii 5D60-1): 0.78 µg/mL (≈ 0.843 µM); MIC (P. aeruginosa 5D58-1): 0.39 µg/mL (≈ 0.422 µM); MIC (C. freundii 1R524): 0.39 µg/mL (≈ 0.422 µM); MIC (C. freundii 1R527): 0.78 µg/mL (≈ 0.843 µM)
CC(=O)Oc1ccc(C(=O)NNC(=O)C(C)(C)ON=C(C(=O)NC2C(=O)N3C(C(=O)O)=C(CSc4cc(C)nc5nc(C(=O)O)nn45)CS[C@H]23)c2csc(N)n2)cc1OC(C)=O (stereo partly shown) [Example 45, 7-{2-[2-Amino-1,3-thiazol-4-yl]-2-[1-(3-(3,4-diacetoxybenzoyl)carbazoyl)-1-methylethoxyimino]acetamido}-3-[(2-carboxy-5-methyl-s-triazolo[1,5-a]pyrimidin-7-yl)thiomethyl]-3-cephem-4-carboxylic acid]	3.13 (≈ 3.43 µM)	0.78 (≈ 0.855 µM)	3.13 (≈ 3.43 µM)	1.56 (≈ 1.71 µM)	12.5 (≈ 13.7 µM)	0.2 (≈ 0.219 µM)	0.012 (≈ 0.0132 µM)	12.5 (≈ 13.7 µM)	6.25 (≈ 6.85 µM)	25 (≈ 27.4 µM)	1.56 (≈ 1.71 µM)	0.39 (≈ 0.428 µM)	1.56 (≈ 1.71 µM)	0.78 (≈ 0.855 µM)	6.25 (≈ 6.85 µM)	1.56 (≈ 1.71 µM)	1.56 (≈ 1.71 µM)	0.2 (≈ 0.219 µM)	0.05 (≈ 0.0548 µM)	0.05 (≈ 0.0548 µM)	MIC (E. coli GN5482): 0.05 µg/mL (≈ 0.0548 µM); MIC (C. freundii 1U692): 1.56 µg/mL (≈ 1.71 µM); MIC (C. freundii 5D60-1): 3.13 µg/mL (≈ 3.43 µM); MIC (P. aeruginosa 5D58-1): 0.1 µg/mL (≈ 0.11 µM); MIC (C. freundii 1R524): 0.78 µg/mL (≈ 0.855 µM); MIC (C. freundii 1R527): 3.13 µg/mL (≈ 3.43 µM)
Cc1cc(SCC2=C(C(=O)O)N3C(=O)C(NC(=O)C(=NOC(C)(C)C(=O)NNC(=O)c4ccc(O)c(O)c4)c4csc(N)n4)[C@H]3SC2)n2nc(C)cc2n1 (stereo partly shown) [Example 57, 7-{2-[2-Amino-1,3-thiazol-4-yl]-2-[1-(3-(3,4-dihydroxybenzoyl)carbazoyl)-1-methylethoxyimino]acetamido}-3-[(2,5-dimethylpyrazolo[1,5-a]pyrimidin-7yl)thiomethyl]-3-cephem-4-carboxylic acid]	0.78 (≈ 0.979 µM)	0.39 (≈ 0.489 µM)	3.13 (≈ 3.93 µM)	0.39 (≈ 0.489 µM)	1.56 (≈ 1.96 µM)	0.1 (≈ 0.125 µM)	0.012 (≈ 0.0151 µM)	3.13 (≈ 3.93 µM)	6.25 (≈ 7.84 µM)	3.13 (≈ 3.93 µM)	1.56 (≈ 1.96 µM)	0.1 (≈ 0.125 µM)	1.56 (≈ 1.96 µM)	0.2 (≈ 0.251 µM)	6.25 (≈ 7.84 µM)	1.56 (≈ 1.96 µM)	1.56 (≈ 1.96 µM)	0.1 (≈ 0.125 µM)	< 0.006	0.012 (≈ 0.0151 µM)	MIC (E. coli GN5482): < 0.006 µg/mL; MIC (C. freundii 1U692): 1.56 µg/mL (≈ 1.96 µM); MIC (C. freundii 5D60-1): 1.56 µg/mL (≈ 1.96 µM); MIC (P. aeruginosa 5D58-1): 0.1 µg/mL (≈ 0.125 µM); MIC (C. freundii 1R524): 0.2 µg/mL (≈ 0.251 µM); MIC (C. freundii 1R527): 3.13 µg/mL (≈ 3.93 µM)
